According to patent publication US6716822B2, “Therapeutic agent for ischemia which inhibits apoptosis under ischemic condition” (priority 2000, dated 2004):

How the values were obtained:
Sprague-Dawley rats = assay: Effect of antibiotics on ischemic cells: rat left anterior descending artery ligature, infarct/ischemic area by Evans blue/TTC staining; type: in vivo; details: 45 mg/kg peritoneally, LAD ligature 2 hours
[1] = Acute toxicity test, subcutaneous injection; details: mouse, in vivo, sc, male C57BL/6 mice, dead mice counted through 1-7 days
Source text: All antibiotics used in the present invention, except for an aminoglycoside antibiotic of geneticin, were not subject to acute toxicity tests since they have been clinically approved for their safety. In case of geneticin, after subcutaneously injecting geneticin into male C57BL/6 mice, dead mice were counted through 1-7 days.

SMILES	AR/LV (percentage of ischemic area per cross-sectional area of heart) (Sprague-Dawley rats) [%]	IS/(IS + AR) (percentage of infarct area per sum of infarct and ischemic area) (Sprague-Dawley rats) [%]	IS/LV (percentage of infarct area per cross-sectional area of heart) (Sprague-Dawley rats) [%]	LD50 [1] [mg/kg]
C[C@H]1c2cccc(O)c2C(=O)C2=C(O)[C@]3(O)C(=O)C(C(N)=O)=C(O)[C@@H](N(C)C)[C@@H]3[C@@H](O)[C@@H]21 [doxycycline]	41.8 ± 4.3	29.3 ± 4.2	16.9 ± 2.5	
CN[C@@H]1[C@@H](O)[C@@H](O[C@@H]2[C@@H](O)[C@H](O[C@H]3O[C@H]([C@@H](C)O)[C@@H](O)[C@H](O)[C@H]3N)[C@@H](N)C[C@H]2N)OC[C@]1(C)O [geneticin]	40.0 ± 4.1	24.6 ± 2.1	12.5 ± 1.8	~3800
